Patent publication US6872712B1, “Cyclic glycerophosphates and analogs thereof” (Yeda Research and Development Co. Ltd., priority 1999, dated 2005)
Each block holds one molecule with its values, some of them ahead of it.

Tests used:
perforated CHO cells = assay: Intracellular binding in perforated CHO cells (displacement of 1,3-cP32P); design: species or system Chinese hamster; details: 20 μM 1,3-cP32P, 5 minutes at 4° C., increasing amounts of competitor (FIG. 9)
Method: Radioactivity was scored after 2 washings with PBS at 4° C. as above. […] In this set of experiments the number of displaceable (i.e. specifically bound) ligands was estimated to be in the range of 10^7-10^8 per cell.

[1] = tested on: intracellular proteins of target cells (CHO and NIH-3T3 cells); assay: Phosphorylation of intracellular proteins of target cells (general statements); assay type: cell-based
Method: In accordance with the invention, the phosphorylating activity of the CGs may be measured by any of the methods known in the art. Generally, following incubation of the CG with the target cells, the cells are lysed, the protein concentration in each sample is determined and the level of phosphorylation of the proteins is determined using known methods and suitable and available polyclonal or monoclonal antibodies. Typically, phosphorylation occurs on the tyrosine residues of the protein and such phosphorylation is determined using either polyclonal or monoclonal anti phosphotyrosine antibodies (such as those described below in the Examples). However, in some cases, phosphorylation occurs on the threonine or serine components of the proteins in which case polyclonal or monoclonal anti phosphothreonine or anti phosphoserine antibodies may be used.
(§1) The cyclic phosphates 1,3 cGP, 1,3 cPP, 1,2 cGP, 1,2 cPP, P-1,3 cGP and P-1,3 cPP and the controls αGP and βGP were dissolved in HBSS, or methanol to form stocks of 1 mM or 10 mM. […] The protein concentration in each sample, as evaluated by the Bradford assay, was in the range of 1-1.5 mg/ml. […] Bound antibodies were detected by horseradish peroxidase-conjugated anti-rabbit antibodies (Transduction Laboratories, Lexington Ky.) after 2 hours incubation at room temperature, using the conventional ECL detection method. […]

[2] = Stability of cyclic phosphates in PBS / aqueous solution (TLC); assay type: physicochemical; details: 10 mg/ml in PBS, 37°, up to 24 hours
[3] = Stability of cyclic phosphates in cell lysates (TLC); details: 10 mg/ml in PBS mixed with CHO or NIH-3T3 cell lysate (0.1 mg/ml protein), 37°, up to 24 hours
[4] = tested on: tyrosine phosphorylated proteins in CHO cells; assay: Tyrosine phosphorylation in CHO cells (Western blot with anti-phosphotyrosine antibodies); assay type: cell-based, Chinese hamster; details: CHO cells, 5 μM or 10 μM, 37° C., 1, 3 or 5 mins, monoclonal antibodies; bands about 35, 60-70, 120 and 38 kD (FIG. 4)
Method: Chinese hamster ovary (CHO) cells (Puck, 1985; Gottesman, 1987) and NIH-3T3 cells (NIH), were used in the following experiments. CHO cells were grown at 37° C. in a humidified 5% CO2 atmosphere in 60×15 mm Petri dishes (Falcon) containing F12 medium supplemented with 10% fetal calf serum (FCS) and 2 mM glutamine. When reaching near confluence, the cells were placed under overnight starvation by replacing the medium to F12+2 mM glutamine with 0.1% FCS. The stimulation experiments were performed with cells which were under starvation for 12-18 hours.
as §1, with “mM. They were diluted into the cell culture medium to a final concentration of up to 20 μM. At the assigned stimulation time (0.5-20 min.) the medium was aspirated under vacuum and the cells were washed 3 times with cold (4° C.) phosphate buffered saline (PBS).” for “mM.”

Raf1/MAPK cascade = assay: Immunoprecipitation kinase assays (Raf-1, MAPK); assay type: cell-based, Chinese hamster; details: CHO cells, 2 μM for 2 and 5 minutes (FIG. 6)
Method: (§2) (v) Immunoprecipitation kinase assays. Raf-1 Activity was determined by immunoprecipitation with anti-Raf-1 C terminus antibodies (Santa Cruz Biotech, CA) using recombinant MEK1 as a substrate as previously described (Seger, 1994). Mitogen-activated protein kinase (MAPK) activity was determined by immunoprecipitation with anti-ERK2 C terminus antibodies (Santa Cruz Biotech, CA) using MBP as a substrate (Seger, 1994). Jun N-terminal kinase (JNK) activity was determined by purifying the JNK on a GST-Jun (1-97) column followed by phosphorylation (Hibi, 1993).
(§3) The in-gel kinase assay in the presence of MBP was applied as described in Materials and Methods above to detect stimulation of protein kinases by the cyclic phosphates. CHO cells were treated either with medium (0 control), or with 2 μM, α GP or β GP for 2 minutes, 2 μM […] for 2 and 5 minutes and […] 1,3-cPP for 2 minutes after which the cells were lysed and analyzed.
(§4) Their apparent molecular weights were around MW of 35-40, 55 and 62 kD. The 35-40 kD protein kinase which was activated by 1,3-cGP (E) could be assigned to the P42 MAPK (ERK 2). In addition, cells were treated as described above and then subjected to Raf-1, MAPK and IP kinase assays and these are presented in the first and second rows of FIG. 6. In parallel, JNK assay was performed (third row, […]).

cell lysate phosphatases = assay: Inhibition of phosphatase activity of cell lysate (PNPP substrate); assay type: biochemical; details: 50 μM, 50 mM PNPP, 90 minutes at 37° C., pH 7.4
Method: Inhibition of phosphatase activity of cell lysate by cyclic phosphates was assayed in 1.0 ml of 50 mM Tris-HCl buffer, pH 7.4, containing 50 mM p-nitrophenyl phosphate, PNPP, as a substrate. Reaction was initiated by the addition of crude cell lysate (100 μg/ml final protein concentration) and terminated after 90 minutes at 37° C. by an addition of 50 μl of 1M NaOH. […] Assays were conducted under the same conditions as above in the presence of 50 μM cyclic phosphate. The enzyme activity in the absence of inhibitor was taken as 100% activity.

[5] = tested on: Jun N-terminal kinase (JNK); assay: JNK assay (GST-Jun substrate); assay type: cell-based, Chinese hamster; details: CHO cells, 2 μM for 2 and 5 minutes (FIG. 6)
Method: as §2, §4

[6] = tested on: protein kinases of CHO cells (P42 MAPK (ERK 2)); assay: In-gel kinase assay in the presence of MBP; assay type: cell-based, Chinese hamster; details: 2 μM for 2 and 5 minutes (FIG. 6)
Method: Phosphorylated cell proteins were separated by SDS-PAGE using a gel that was copolymerized with MBP (0.5 mg/ml) and treated as described (Karunuguran et al., EMBO J. 15:254-264, 1996). After electrophoresis, the gel was fixed with isopropanol and denatured using 6M Urea. Renaturation was achieved by gradual removal of the excess of urea followed by extensive washings in a renaturing buffer (16 h, 4° C.) and in a buffer containing […] HEPES pH 7.6, and 20 mM MgCl2 (30 min, 30° C.). The gel was then subjected to phosphorylation in a buffer containing 20 mM HEPES pH 7.6, 20 mM MgCl2, 2 mM DTT, 20 μM ATP and […] [y^32P]-ATP (30° C. for 120 min). Finally the gel was extensively washed, dried, and subjected to autoradiography.
as §3

CHO cells = assay: Uptake of 32P labeled 1,3-cPP by CHO cells; assay type: cell-based, Chinese hamster; details: intact CHO cells, increasing amounts of unlabeled compound
Method: After 2 washings with PBS the cells were disintegrated in 1 M NaOH and radioactivity was scored with a β counter. The insert presents the magnified uptake profile for short incubations (up to 2 minutes) where the intercept (0 time incubation) corresponded to approximately 3×10^6 molecules per cell, while at equilibrium (above 2 hours incubation) incorporation corresponded to approximately 2×10^8 molecules per cell.

[7] = tested on: estrogen receptor (ER) in human ERmod T47D cells; assay: Estrogen receptor expression in T47D cells (immunostaining, score 0 to 4); assay type: cell-based; details: 1 μM, 7 days of incubation (FIG. 11)
Method: Tumor cells were incubated for 7 days in the absence or presence of 1 μM of 1,3 cGP. On each of the noted days, cells were harvested by trypsinization, washed and fixed by dryng in air. The preparations were then peroxidased and protein blocked. Following this, the cells were labeled with first antibody (mouse-anti-human ER) for 30 mins. at room temperature (RT). After washing, cells were incubated with biotinylated second antibody for 10 min at RT. After washing, the cells were incubated with streptavidin conjugated to horse radish peroxidase and color reaction with the DAB reagent was performed. Background staining was done with hematoxylin (mayer) and the fixation process was completed with water, alcohol and finally xylene immersions. The slides were covered, sealed and examined by a pathologist in a blind fashion. Expression of the ER was scored on a scale of 0 to 4 pulses, where 4 pulses is the highest score.

insulin receptor = assay: Tyrosine phosphorylation of the insulin receptor in CHO-T cells; assay type: cell-based; details: 20 mins
Method: Group 4: 0.1 μM 1,3, cPP only.
Tyrosine phosphorylation was determined using anti-phosphotyrosine antibody (as described above).

Molecule: O=P(O)(O)OCC(O)CO (stereo in doubt) [αGP, L-α-glycerophosphate, reference compound]
- displacement of 1,3-cP32P in perforated CHO cells (perforated CHO cells): ineffective
- level of phosphorylation in intracellular proteins after extracellular application [1]: lack this activity

- hydrolysis to the linear form in PBS [2]: No hydrolysis
- hydrolysis to the linear form by cell lysate [3]: No hydrolysis
Molecule: O=P1(O)OCC(CO)O1 (stereo not drawn) [1,2 cGP, 1,2 cyclic glycerophosphate]

- hydrolysis to the linear form in PBS [2]: No hydrolysis
- hydrolysis to the linear form by cell lysate [3]: No hydrolysis
Molecule: CC1COP(=O)(O)O1 (stereo not drawn) [1,2 cPP, 1,2 cyclic propanediol phosphate]
- kinetics of tyrosine phosphorylation [4]: enhanced tyrosine phosphorylation

- effect on the JNK pathway [5]: unaffected
Molecule: O=P1(O)OCC(O)CO1 (stereo not drawn) [1,3 cGP(E)]
- activation of the Raf1/MAPK cascade (Raf1/MAPK cascade): ≤ 5 fold
- inhibition of the lysate phosphatases (in words) (cell lysate phosphatases): limited inhibition
- stimulation of 35-40 kD protein kinase (P42 MAPK, ERK 2) [6]: activated

- hydrolysis to the linear form in PBS [2]: No hydrolysis
- hydrolysis to the linear form by cell lysate [3]: No hydrolysis
Molecule: O=P1(O)OCC(O)CO1 (stereo not drawn) [1,3 cGP, 1,3 cyclic glycerophosphate]
- effect of unlabeled competitor on the uptake profile of 1,3-cP32P (CHO cells): remained essentially unaltered
- displacement of 1,3-cP32P in perforated CHO cells (perforated CHO cells): clear binding competition
- level of expression of estrogen receptor (ER) versus growth medium alone [7]: increases
- level of expression of estrogen receptor (ER) versus growth medium alone ([7]; listed as 1,3, cGP): significantly higher
- inhibition of cell lysate phosphatase activity (cell lysate phosphatases): approximately 10%

Molecule: O=P(O)(O)OC(CO)CO [βGP, β-Glycerophosphate]
- level of phosphorylation in intracellular proteins after extracellular application [1]: lack this activity

Molecule: insulin: hormone; binding to its receptor results in tyrosine phosphorylation of 117 kD and 200 kD receptor proteins
- phosphorylation of the insulin receptors (insulin receptor; 0.1 nM insulin): partial phosphorylation
- phosphorylation of the insulin receptors (insulin receptor; 1 nM insulin): maximal phosphorylation
